In paper PMC10222323, “Novel Biotinylated Cu(II)-Phenanthroline Complexes: 2D and 3D Cytotoxic Activity and Mechanistic Insight” (Molecules, 2023):

Legend:
[1] = system: human pancreatic PSN-1 cancer-cell spheroids; experiment: 3D spheroid cytotoxicity, APH assay, 72 h; type: cell-based; settings: for IC50: 3D spheroids, 72 h, APH test; for times more effective than cisplatin in 3D spheroids: PSN-1 3D spheroids, relative to cisplatin
Protocol: The cancer spheroids were treated with tested complexes for 72 h, and the cell viability was estimated by means of a modified acid phosphatase (APH) assay.
Spheroid cultures were performed by seeding 2.5 × 10^3 PSN-1 cancer cells/well in spheroid-suitable tissue culture untreated 96-well plates (Greiner Bio-one, Kremsmünster, Austria) in RPMI-1640 cell culture medium without phenol red (Sigma Chemical Co., St. Louis, MO, USA) containing 10% fetal calf serum and supplemented with 20% methyl cellulose stock solution.
An established APH-modified assay was used to detect the cytotoxicity profile in 3D spheroids, as previously described. IC50 values were calculated using a 4-PL model.

[2] = system: genomic DNA of MDA-MB-231 cells; settings: 3 h; for cells with lesioned genomic DNA (comets): 4 μM, fraction of treated cells
Protocol: As proof of the principle of their DNA-targeting ability, the alkaline single-cell gel electrophoresis (Comet assay, Figure 4) assay was performed to evaluate cellular genomic DNA lesions induced by tested complexes. […] MDA-MDB-231 cells were exposed for 3 h to 4 μM of tested compounds or 200 µM of the reference drug chlorambucil. Figure 4A depicts the relative percentage of comets and the number of cells forming a comet relative to the total number of detected cells per each condition in two randomly captured fields from two independent experiments. […] On the other hand, some reports highlighted protein disulphide isomerase (PDI) as an emerging target for copper complexes. On this basis, we also evaluated the ability of our complexes to act as PDI inhibitors. The enzyme was treated with 25 µM of complexes 2 and 4, and the ability to hamper its activity was assessed by a biochemical colourimetric method (Proteostat kit).
About 3 × 10^4 MDA-MB-231 cells were seeded in 25 cm^2 flasks in a growth medium. After overnight incubation, cells were treated for 3 h with […] of tested compounds and processed as previously described. Pictures were captured with a Zeiss LSM-800 confocal microscope (Zeiss, Oberkochen, Germany). All photos were analyzed by the Zen 2.3 system (Zeiss, Oberkochen, Germany).
Figure 4 Mechanistic studies. (A) Comet assay: MDA-MDB-231 cells were treated for 3 h with 4 μM of tested compounds 2 and 4 or 200 µM of the reference drug chlorambucil. The relative percentage of comets (number of cells forming a comet/total number of cells) was detected in two randomly captured fields from two independent experiments. (B) PDI inhibition induced by tested compounds was measured by Proteostat PDI assay kit. The PDI inhibitor Bacitracine (0.5 mM) was used as a positive control. Error bars indicate S.D. ** p < 0.01 compared with control.

[3] = system: six different cancer cell lines; experiment: MTT cytotoxicity, average over the cancer cell line panel; type: cell-based, human; settings: 2D assays, average over the cancer cell lines of Table 1
Protocol: The in vitro anticancer potential of the newly developed complexes and of the ligands has been tested on six different cancer cell lines including PSN-1 (pancreatic), HCT-15 (colorectal with low sensitivity for cisplatin), 2008 (ovarian), A431 (cervical), MDA-MB-231 (breast), and U1285 (lung) cancer cells. For comparison purposes, cisplatin efficacy was assessed under the same experimental conditions.
Due to note, all the complexes were very effective in the MDA-MB-231 cell line, which overexpress the SMVT (sodium-dependent multivitamin transporter) receptor, which is well known to be involved in the intracellular translocation of biotin [24].
The growth inhibitory effect toward the tumour cell lines was evaluated by the MTT test as previously described.

[4] = system: MDA-MB-231 cells; settings: 24 h, 2 and 3 μM
Protocol: The ability to enter cancer cells is a very important factor to determine the biological activity of metal-based compounds. Consequently, with the aim of correlating the antiproliferative activity elicited by all the newly developed complexes and their accumulation profiles into cancer cells, the Cu content was evaluated in the SMVT overexpressing MDA-MB-231 cells. Uptake profiles were determined by treating cancer cells for 24 h with two concentrations (2 and 3 μM) of tested complexes.
MDA-MB-231 cells (2.5 × 10^6) were seeded in 75 cm^2 flasks in a growth medium (20 mL). Following 24 h, cells were treated for 24 h with tested complexes and samples processed as previously described.
Figure 2 Cellular uptake of complexes 1–4 in drug-treated MDA-MB-231 human breast cancer cells. Cells were incubated for 24 h with […] of tested complexes. The amount of cellular Cu was estimated by GF-AAS. Error bars are S.D.

[5] = system: MDA-MB-231 cells; settings: 3 μM, 24 and 48 h

Row | SMILES | IC50 [1] [µM] | times more effective than cisplatin in 3D spheroids [1] | cells with lesioned genomic DNA (comets) [2] | IC50 [3] [µM] | DNA damaging efficacy compared with chlorambucil ([2]; 4 μM compound vs 200 µM chlorambucil) | Cu intracellular content (uptake) [4] | apoptosis induction (Hoechst staining) [5]
1 | O=C(CCCC[C@@H]1SC[C@@H]2NC(=O)N[C@@H]21)NN=C1C(=O)c2ccc[n+]3c2-c2c1ccc[n+]2[Cu-2]3([Cl])[Cl] [Complex 2, [Cu(phendione-biotin)Cl2]] | 1.3 ± 0.5 | about forty | at least one fourth | – | – | – | –
2 | O=C(CCCC[C@@H]1SC[C@@H]2NC(=O)N[C@@H]21)NN=C1C(=O)c2ccc[n+]3c2-c2c1ccc[n+]2[Cu-2]31[n+]2cccc3ccc4ccc[n+]1c4c32.O=[N+]([O-])[O-].O=[N+]([O-])[O-] [Complex 4, [Cu(phen)(phendione-biotin)](NO3)2] | 6.9 ± 1.3 | eight | one third | 0.8 | much higher than that induced by the reference compound chlorambucil | most internalised into cancer cells | morphological features typical of cells undergoing apoptosis
